Patent US9932637B2, “Genetic polymorphisms associated with cardiovascular disorders and drug response, methods of detection and uses thereof” (CELERA CORPORATION, priority 2003, dated 2018)
“And” between values parts separate entries of the source, which are not always exact repeats. Equal entries are not always repeated.

System: Scottish men with hypercholesterolemia (WOSCOPS)
Assay: WOSCOPS nested case-control: coronary events under pravastatin vs placebo by genotype (Tables 11, 13, 15)
Format: in vivo, human
Details: for Pravastatin Patients (%) / Pravastatin Patients n/total: WM
Source text: Additionally, genetic markers identified as associated with acute coronary events or response to statin treatment for the prevention of coronary events in the CARE samples were also genotyped in a second sample set, the West of Scotland Coronary Prevention Study (WOSCOPS) sample set. […] Participants in the WOSCOPS study were 45-64 years of age and followed for an average of 4.9 years for coronary events. […] Controls were 1160 age and smoking status-matched unaffected patients. All individuals included in the study had signed a written informed consent form and the study protocol was approved by IRB s. DNA was extracted and genotyped as described above.
The data presented in Table 8 based on an association of genotypes with pravastatin efficacy of the CARE samples were further analyzed and presented in Table 13. The further analysis was performed to align the data obtained from the analysis of the CARE samples, which was a prospective study, to the analysis of the WOSCOP samples, which was a case/control study. Table 13 also presents an analysis of the association of genotypes with pravastatin efficacy in the WOSCOPs samples. Relative to the analysis performed on the data presented in Table 8, there are two significant differences to determine if the SNP influenced pravastatin efficacy. Data obtained from the CARE samples were separated by study design into two groups, those in the prospective study design group and those in the case/control study design group. The original care study contained 16 protocol defined cardiovascular disease defined endpoints and 150 other phenotypes. […] The control groups used to compare the data were also divided into two groups, the “all possible” control group and the “cleaner” control group. […] Because the participants in the WOSCOPs trial were all white males, only data obtained from white males in the CARE study were analysed. […] The data from the case/control cohorts were analysed using conditional logistic regression (as opposed to logistic regression used for the original anaylsis).
The anaylsis was refined as described for both Tables 13 and 14.

[1] = CAPN2 hCV781558, WOSCOPS (W) Case/Control, F&NF MI, listed as Pravastatin
[2] = CAPN2 hCV781558, WOSCOPS, Case/Control, F MI/SD/NF MI, listed as Pravastatin
[3] = CCL11 hCV7449808, WOSCOPS (W) Case/Control, F&NF MI
[4] = CCL11 hCV7449808, WOSCOPS, Case/Control, F MI/SD/NF MI
[5] = COL6A2 hCV2811372, WOSCOPS, Case/Control, F MI/SD/NF MI
[6] = COL6A2 hCV2811372, WOSCOPS, Case/Control, F MI/SD/NF MI, listed as Pravastatin
[7] = DDEF1 hCV7686234, WOSCOPS (W) Case/Control, F&NF MI
[8] = FGB hCV7429784, WOSCOPS, Case/Control, F MI/SD/NF MI
[9] = GAPD hCV8921288, WOSCOPS (W) Case/Control, F&NF MI
[10] = GAPD hCV8921288, WOSCOPS, Case/Control, F MI/SD/NF MI
[11] = HRC hCV11506744, 0 Rare Alleles, WOSCOPS Case/Control, F&NF MI, All Possible controls
[12] = HRC hCV11506744, 0 Rare Alleles, WOSCOPS Case/Control, F&NF MI, Cleaner controls
[13] = HRC hCV11506744, 1 Rare Allele, WOSCOPS Case/Control, F&NF MI, All Possible controls
[14] = HRC hCV11506744, 1 Rare Allele, WOSCOPS Case/Control, F&NF MI, Cleaner controls
[15] = HRC hCV11506744, WOSCOPS Case/Control, F&NF MI
[16] = HRC hCV11506744, WOSCOPS, Case/Control, F MI/SD/NF MI, listed as Pravastatin
[17] = IL1A hCV9546471, 0 Rare Alleles, WOSCOPS Case/Control, F&NF MI, All Possible controls
[18] = IL1A hCV9546471, 1 Rare Allele, WOSCOPS Case/Control, F&NF MI, All Possible controls
[19] = IL1A hCV9546471, WOSCOPS Case/Control, F&NF MI
[20] = IL1A hCV9546471, WOSCOPS, Case/Control, F MI/SD/NF MI
[21] = LRP3 hCV25594815, 0 Rare Alleles, WOSCOPS Case/Control, F&NF MI, All Possible controls
[22] = LRP3 hCV25594815, 0 Rare Alleles, WOSCOPS Case/Control, F&NF MI, Cleaner controls
[23] = LRP3 hCV25594815, 1 Rare Allele, WOSCOPS Case/Control, F&NF MI, All Possible controls
[24] = LRP3 hCV25594815, 1 Rare Allele, WOSCOPS Case/Control, F&NF MI, Cleaner controls
[25] = LRP3 hCV25594815, WOSCOPS Case/Control, F&NF MI
[26] = LRP3 hCV25594815, WOSCOPS, Case/Control, F MI/SD/NF MI
[27] = PON1 hCV2548962, 0 rare alleles, WOSCOPS Case/Control, Fatal & Nonfatal MI, Cleaner controls, White Males
[28] = PON1 hCV2548962, 1 rare allele, WOSCOPS Case/Control, Fatal & Nonfatal MI, Cleaner controls, White Males
[29] = PON1 hCV2548962, 2 rare alleles, WOSCOPS Case/Control, Fatal & Nonfatal MI, Cleaner controls, White Males
[30] = WOSCOPS, FCAR genotype GG, placebo group as reference, conditional logistic regression

CC[C@H](C)C(=O)O[C@H]1C[C@H](O)C=C2C=C[C@H](C)[C@H](CC[C@@H](O)C[C@@H](O)CC(=O)O)[C@H]21 [pravastatin]
Pravastatin vs placebo odds ratio, 1 rare allele (CAPN2 hCV781558, WOSCOPS (W) Case/Control, F&NF MI): 1.02
2 Rare Alleles n/total, Pravastatin Patients [1]: 10/41 and 10/39
Pravastatin vs placebo odds ratio, 0 rare alleles [1]: 0.52 and 0.51
Pravastatin vs placebo odds ratio, 1 rare allele [1]: 1.07
Pravastatin vs placebo odds ratio, 2 rare alleles [1]: 0.46 and 0.38
Pravastatin vs placebo odds ratio, 1 rare allele (CAPN2 hCV781558, WOSCOPS, Case/Control, F MI/SD/NF MI): 1.08
Pravastatin vs placebo odds ratio, 0 rare alleles [2]: 0.46 and 0.45
Pravastatin vs placebo odds ratio, 1 rare allele [2]: 1.03
Pravastatin vs placebo odds ratio, 2 rare alleles [2]: 0.56 and 0.43
2 Rare Alleles n/total, Pravastatin Patients [3]: 10/24 and 10/22
Pravastatin vs placebo odds ratio, 0 rare alleles [3]: 0.67 and 0.65
Pravastatin vs placebo odds ratio, 1 rare allele [3]: 0.57 and 0.53
Pravastatin vs placebo odds ratio, 2 rare alleles [3]: 6.96 and 7.20
Pravastatin vs placebo odds ratio, 0 rare alleles [4]: 0.63 and 0.62
Pravastatin vs placebo odds ratio, 1 rare allele [4]: 0.50 and 0.46
Pravastatin vs placebo odds ratio, 2 rare alleles [4]: 8.57 and 9.95
Pravastatin vs placebo odds ratio, 0 rare alleles [5]: 0.39
Pravastatin vs placebo odds ratio, 2 rare alleles [5]: 1.04
Pravastatin vs placebo odds ratio, 1 rare allele [6]: 0.62 and 0.59
Pravastatin vs placebo odds ratio, 2 rare alleles [6]: 1.09
2 Rare Alleles (%), Pravastatin Patients [7]: (25.1%)
2 Rare Alleles n/total, Pravastatin Patients [7]: 42/167
Pravastatin vs placebo odds ratio, 0 rare alleles [7]: 0.45
Pravastatin vs placebo odds ratio, 1 rare allele [7]: 0.68
Pravastatin vs placebo odds ratio, 2 rare alleles [7]: 1.06
2 rare alleles n/total (%), pravastatin patients [8]: (50.0%)
Pravastatin vs placebo odds ratio, 0 rare alleles [8]: 0.63
Pravastatin vs placebo odds ratio, 1 rare allele [8]: 0.52
Pravastatin vs placebo odds ratio, 2 rare alleles [8]: 3.14
2 Rare Alleles n/total, Pravastatin Patients [9]: 10/26 and 10/23
Pravastatin vs placebo odds ratio, 0 rare alleles [9]: 0.54 and 0.50
Pravastatin vs placebo odds ratio, 1 rare allele [9]: 0.99 and 0.98
Pravastatin vs placebo odds ratio, 2 rare alleles [9]: 1.51 and 1.90
Pravastatin vs placebo odds ratio, 0 rare alleles [10]: 0.50 and 0.46
Pravastatin vs placebo odds ratio, 1 rare allele [10]: 0.88 and 0.89
Pravastatin vs placebo odds ratio, 2 rare alleles [10]: 1.56 and 1.92
Pravastatin Patients (%) [11]: (23.3%)
Pravastatin Patients n/total [11]: 59/253
Pravastatin Patients (%) [12]: (25.2%)
Pravastatin Patients n/total [12]: 59/234
Pravastatin Patients (%) [13]: (18.0%)
Pravastatin Patients n/total [13]: 65/361
Pravastatin Patients (%) [14]: (19.2%)
Pravastatin Patients n/total [14]: 65/338
2 Rare Alleles (%), Pravastatin Patients [15]: (27.6%)
2 Rare Alleles n/total, Pravastatin Patients [15]: 35/127 and 35/118
Pravastatin vs placebo odds ratio, 0 rare alleles [15]: 0.84 and 0.80
Pravastatin vs placebo odds ratio, 1 rare allele [15]: 0.49 and 0.46
Pravastatin vs placebo odds ratio, 2 rare alleles [15]: 1.08
Pravastatin vs placebo odds ratio, 2 rare alleles (HRC hCV11506744, WOSCOPS, Case/Control, F MI/SD/NF MI): 1.04
Pravastatin vs placebo odds ratio, 0 rare alleles [16]: 0.85 and 0.80
Pravastatin vs placebo odds ratio, 1 rare allele [16]: 0.41 and 0.39
Pravastatin vs placebo odds ratio, 2 rare alleles [16]: 1.05
Pravastatin Patients (%) [17]: (20.8%)
Pravastatin Patients n/total [17]: 77/370
Pravastatin Patients (%) [18]: (24.2%)
Pravastatin Patients n/total [18]: 74/306
2 Rare Alleles (%), Pravastatin Patients [19]: (18.3%)
2 Rare Alleles n/total, Pravastatin Patients [19]: 11/60
Pravastatin vs placebo odds ratio, 0 rare alleles [19]: 0.52
Pravastatin vs placebo odds ratio, 1 rare allele [19]: 0.95
Pravastatin vs placebo odds ratio, 2 rare alleles [19]: 0.95
Pravastatin vs placebo odds ratio, 0 rare alleles [20]: 0.46 and 0.45
Pravastatin vs placebo odds ratio, 1 rare allele [20]: 0.91 and 0.85
Pravastatin vs placebo odds ratio, 2 rare alleles [20]: 0.94 and 0.98
Pravastatin Patients (%) [21]: (24.1%)
Pravastatin Patients n/total [21]: 133/552
Pravastatin Patients (%) [22]: (26.1%)
Pravastatin Patients n/total [22]: 133/509
Pravastatin Patients (%) [23]: (14.5%)
Pravastatin Patients n/total [23]: 25/172
Pravastatin Patients (%) [24]: (15.2%)
Pravastatin Patients n/total [24]: 25/164
2 Rare Alleles (%), Pravastatin Patients [25]: (27.3%)
2 Rare Alleles n/total, Pravastatin Patients [25]: 3/11
Pravastatin vs placebo odds ratio, 0 rare alleles [25]: 0.82 and 0.80
Pravastatin vs placebo odds ratio, 1 rare allele [25]: 0.33 and 0.31
Pravastatin vs placebo odds ratio, 2 rare alleles [25]: 1.46 and 1.21
2 rare alleles n/total (%), pravastatin patients [26]: (27.3%)
Pravastatin vs placebo odds ratio, 0 rare alleles [26]: 0.76 and 0.75
Pravastatin vs placebo odds ratio, 1 rare allele [26]: 0.29 and 0.26
Pravastatin vs placebo odds ratio, 2 rare alleles [26]: 2.40 and 1.80
Pravastatin vs. Placebo Odds Ratio (95% CI), Patients with 0 Rare Alleles [27]: 0.84 (0.60 to 1.16)
n/total (%) cases, Pravastatin Patients, 0 Rare Alleles [27]: 88/344 (25.6%)
Pravastatin vs. Placebo Odds Ratio (95% CI), Patients with 1 Rare Allele [28]: 0.58 (0.40 to 0.84)
n/total (%) cases, Pravastatin Patients, 1 Rare Allele [28]: 65/282 (23.1%)
Pravastatin vs. Placebo Odds Ratio (95% CI), Patients with 2 Rare Alleles [29]: 0.34 (0.14 to 0.82)
n/total (%) cases, Pravastatin Patients, 2 Rare Alleles [29]: 9/53 (17.0%)
RR or OR of adverse coronary event, pravastatin vs placebo (WOSCOPS, CD6 hCV2553030, homozygous for the minor allele): 0.23
OR (odds ratio) of MI associated with Pravastatin (WOSCOPS, CD6 hCV2553030 genotype Het (TC)): 0.71
OR (odds ratio) of MI associated with Pravastatin (WOSCOPS, CD6 hCV2553030 genotype Major hom (CC)): 0.66
OR (odds ratio) of MI associated with Pravastatin (WOSCOPS, CD6 hCV2553030 genotype Minor hom (TT)): 0.23
OR (odds ratio) of MI associated with Pravastatin (WOSCOPS, CD6 hCV2553030 recessive (TT)): 0.23
OR (odds ratio) of MI associated with Pravastatin (WOSCOPS; CD6 hCV2553030 recessive TC + CC)ref): 0.68
OR of MI associated with Pravastatin, first of two OR sets printed [30]: 0.66
OR of MI associated with Pravastatin, second of two OR sets printed [30]: 0.65
